Measurements as given in patent US7405231B2, “Oxidized thioether derivatives” (Hoffmann-La Roche Inc., priority 2004, dated 2008).

How the values were obtained:
HER2 = molecular target: T1, HER2 (Homo sapiens, UniProt P04626); assay: Inhibition of HER2 phosphorylation in Calu3 tumor cell line; type: cell-based; conditions: Calu3 cells; for percentage of inhibition of phosphorylation compared with the reference compound: 1 μM compound, versus Example 4, p. 88, WO 01/77107; for inhibition at 1 µM: Calu-3, read-out: Percent inhibition of HER2-phosphorylation
T1 construct: endogenous in cells; host or cells: Calu3 tumor cell line
T1 sequence (P04626 23-1255): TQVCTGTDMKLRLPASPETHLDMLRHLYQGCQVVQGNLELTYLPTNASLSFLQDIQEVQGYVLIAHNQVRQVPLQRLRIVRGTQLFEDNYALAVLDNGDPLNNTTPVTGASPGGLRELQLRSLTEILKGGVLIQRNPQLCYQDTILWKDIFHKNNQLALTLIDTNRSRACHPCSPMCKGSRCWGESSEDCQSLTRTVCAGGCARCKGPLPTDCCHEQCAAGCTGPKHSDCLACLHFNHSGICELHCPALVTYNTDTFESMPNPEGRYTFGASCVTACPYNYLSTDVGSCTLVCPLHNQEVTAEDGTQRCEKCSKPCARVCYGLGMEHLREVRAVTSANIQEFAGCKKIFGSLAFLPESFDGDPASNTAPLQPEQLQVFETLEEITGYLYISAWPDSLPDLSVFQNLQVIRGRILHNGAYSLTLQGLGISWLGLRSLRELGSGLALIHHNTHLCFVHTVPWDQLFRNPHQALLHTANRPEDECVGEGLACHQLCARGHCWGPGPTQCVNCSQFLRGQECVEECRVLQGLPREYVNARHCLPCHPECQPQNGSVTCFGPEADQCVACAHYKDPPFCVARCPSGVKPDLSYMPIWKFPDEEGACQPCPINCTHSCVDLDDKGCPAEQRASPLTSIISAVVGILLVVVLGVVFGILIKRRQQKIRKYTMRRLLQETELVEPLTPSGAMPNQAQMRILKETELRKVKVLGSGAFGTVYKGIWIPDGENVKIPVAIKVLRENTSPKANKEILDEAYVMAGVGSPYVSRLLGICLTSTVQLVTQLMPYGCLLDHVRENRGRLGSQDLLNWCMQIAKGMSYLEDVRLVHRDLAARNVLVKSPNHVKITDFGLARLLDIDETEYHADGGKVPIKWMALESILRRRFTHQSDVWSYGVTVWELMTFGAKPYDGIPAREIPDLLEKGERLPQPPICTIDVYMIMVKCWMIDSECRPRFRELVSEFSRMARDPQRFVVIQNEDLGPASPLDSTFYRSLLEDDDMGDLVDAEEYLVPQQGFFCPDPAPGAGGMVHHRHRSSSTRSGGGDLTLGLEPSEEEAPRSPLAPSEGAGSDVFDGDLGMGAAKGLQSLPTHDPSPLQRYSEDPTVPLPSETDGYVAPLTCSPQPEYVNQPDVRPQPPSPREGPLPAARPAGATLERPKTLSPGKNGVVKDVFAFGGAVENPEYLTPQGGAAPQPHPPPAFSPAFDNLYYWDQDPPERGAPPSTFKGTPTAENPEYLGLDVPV
Description: Inhibition of HER2 phosphorylation in Calu3 tumor cell line.
2×10^5 Calu3 cells per well were plated in a 12-well plate. After 4 days cells were starved for 16 h in DMEM(Dulbecco's Modified Eagle Medium)/0.5% FCS/1% Glutamine. During this time cells were incubated with 1 μM of a compound according to the present invention. Afterwards cells were lysed in lyses buffer containing 1% Triton, 10% Glycerol, 1 mM EGTA, 1.5 mM MgCl2, 150 mM NaCl, 50 mM Hepes pH 7.5, 1 mM PMSF, 10 μg/mL Aprotinin and […] Orthovanadate. Cell lysates were analyzed on a SDS PAGE and after transfer to a nitrocellulose membrane detected with a rabbit antibody specifically recognizing the pY 1248 in HER2 (Cell Signaling). After incubation with an anti rabbit antibody coupled to POD (Biorad) (Peroxidase available from Biorad, Munich, Germany) signals were detected by chemiluminescence (ECL,Amersham). Inhibition of HER2 phosphorylation is calculated as percentage of the DMSO treated control. This percentage is calculated according to the following formula: Inhibition in %=100-(Phosphorylated-HER2-Signal of Test Sample* 100/Phosphorylated-HER2-Signal DMSO-control).

[1] = compound concentration 1 μM, 16 h, pY 1248 in HER2, percentage of the DMSO treated control

Row | SMILES | melting point | percentage of inhibition of phosphorylation compared with the reference compound (HER2) | Percent inhibition of HER2-phosphorylation (HER2; [1]) | inhibition at 1 µM (HER2; [1])
1 | [O-][S+](c1ccc(/C=C/c2nc(COc3ccc(CNCCn4ccnn4)cc3)co2)cc1)C(F)(F)F (stereo not shown) [Example 3, (2-[1,2,3]Triazol-1-yl-ethyl)-(4-{2-[(E)-2-(4-trifluoromethanesulfinyl-phenyl)-vinyl]-oxazol-4-ylmethoxy}-benzyl)-amine] | 111 to 113 °C | – | – | –
2 | O=S(=O)(NCCn1ccnn1)c1ccc(OCc2coc(C=Cc3ccc([S+]([O-])C(F)(F)F)cc3)n2)cc1 (stereo not shown) [Example 13, N-(2-[1,2,3] Triazol-1-yl-ethyl)-4-{2-[2-(4-trifluoromethanesulfinyl-phenyl)-vinyl]-oxazol-4-ylmethoxy}-benzenesulfonamide] | 172 to 174 °C | – | – | –
3 | Cc1cc(OCc2coc(C=Cc3ccc(S(=O)(=O)C(F)(F)F)cc3)n2)ccc1CCCCn1ccnn1 [Example 20, 1-[4-(2-Methyl-4-{2-[2-(4-trifluoromethanesulfonyl-phenyl)-vinyl]-oxazol-4-ylmethoxy}-phenyl)-butyl]-1H-[1,2,3]triazole] | 140 to 142 °C | – | – | –
4 | [O-][S+](c1ccc(C=Cc2nc(COc3ccc(CCCCn4ccnc4)cc3)co2)cc1)C(F)(F)F (stereo not shown) [example 1, 4-[4-(4-Imidazol-1-yl-butyl)-phenoxymethyl]-2′-[2-(4-trifluoromethanesulfinyl-phenyl)-vinyl]-oxozole] | – | higher percentage of inhibition of phosphorylation | 92.5% | –
5 | [O-][S+](c1ccc(/C=C/c2nc(COc3ccc(CCCCn4ccnn4)cc3)co2)cc1)C(F)(F)F (stereo not shown) [example 4, 1-[4-(4-{2-[(E)-2-(-4-Trifluoromethanesulfinyl-phenyl)-vinyl]-oxazol-4-ylmethoxy}-phenyl)-butyl]-1H-[1,2,3]triazole] | 122 to 123 °C | higher percentage of inhibition of phosphorylation | – | 94.4%
6 | O=S(=O)(c1ccc(/C=C/c2nc(COc3ccc(CCCCn4ccnn4)cc3)co2)cc1)C(F)(F)F [example 5, 1-[4-(4-{2-[(E)-2-(-4-Trifluoromethanesulfonyl-phenyl)-vinyl]-oxazol-4-ylmethoxy}-phenyl)-butyl]-1H-[1,2,3]triazole] | 133 to 135 °C | higher percentage of inhibition of phosphorylation | – | 82.9%
7 | [O-][S+](c1ccc(/C=C/c2nc(COc3ccc(CCCCc4nn[nH]n4)cc3)co2)cc1)C(F)(F)F (stereo not shown) [example 7, 5-[4-(4-{2-[(E)-2-(-4-Trifluoromethanesulfinyl-phenyl)-vinyl]-oxazol-4-ylmethoxy}-phenyl)-butyl]-2H-tetrazole] | – | higher percentage of inhibition of phosphorylation | – | 52.9%
8 | [O-][S+](c1ccc(/C=C/c2nc(COc3ccc(CCCCn4ccnn4)cc3)cs2)cc1)C(F)(F)F (stereo not shown) [example 15, 1-[4-(4-{2-[(E)-2-(4-Trifluoromethanesulfinyl-phenyl)-vinyl]-thiazol-4-ylmethoxy}-phenyl)-butyl]-1H-[1,2,3]triazole] | 118 to 119 °C | higher percentage of inhibition of phosphorylation | – | 73.6%
